In this assay the test system is ATF4 luciferase reporter in HEK293T cells. Kind of assay: ATF4-Luc assay (in vitro model of VWMD). Format: cell-based, human. As to conditions: Homo sapiens, HEK-293T, 7 h, HEK293T cells carrying the ATF4 luciferase reporter, 1 μg/mL tunicamycin, One Glo luminescence. A digest of the protocol:
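Stable HEK293T line expressing firefly luciferase behind the human ATF4 5′-UTR, treated with 1 μg/mL tunicamycin plus compound for 7 hours. Luminescence read with One Glo; EC50 determined.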
On the technique in general: Reporter assays use an easily measured gene product as a stand-in for the process of interest.
In the case of `O=C(NC12CC(n3cc(-c4ccc(C(F)F)cn4)cn3)(C1)C2)[C@H]1C[C@@H](O)c2cc(Cl)c(F)cc2O1` [Compound 569, (2R,4R)-6-chloro-N-(3-{4-[5-(difluoromethyl)pyridin-2-yl]-1H-pyrazol-1-yl}bicyclo[1.1.1]pentan-1-yl)-7-fluoro-4-hydroxy-3,4-dihydro-2H-1-benzopyran-2-carboxamide], the EC50 (commonly the concentration giving half of the maximal effect) is under 10 nM. With `O=C(NC12CC(n3cc(-c4ccc(OC(F)F)cn4)cn3)(C1)C2)[C@H]1C[C@@H](O)c2cc(Cl)c(F)cc2O1` [Compound 576, (2R,4R)-6-chloro-N-(3-{4-[5-(difluoromethoxy)pyridin-2-yl]-1H-pyrazol-1-yl}bicyclo[1.1.1]pentan-1-yl)-7-fluoro-4-hydroxy-3,4-dihydro-2H-1-benzopyran-2-carboxamide], the EC50 is under 10 nM.

As to `O=C(N[C@H]1CC[C@H](n2cc(OCCOC(F)(F)F)cn2)CC1)[C@H]1C[C@@H](O)c2cc(Cl)ccc2O1` [Compound 421, (2R,4R)-6-chloro-4-hydroxy-N-[(1r,4R)-4-{4-[2-(trifluoromethoxy)ethoxy]-1H-pyrazol-1-yl}cyclohexyl]-3,4-dihydro-2H-1-benzopyran-2-carboxamide], the EC50 was under 10 nM. Turning to `COc1ccc2nn(C34CC(NC(=O)C5CNc6cc(C(F)(F)F)c(F)cc6O5)(C3)C4)cc2c1` (centres unmarked) [Compound 653, 7-fluoro-N-[3-(5-methoxy-2H-indazol-2-yl)bicyclo[1.1.1]pentan-1-yl]-6-(trifluoromethyl)-3,4-dihydro-2H-1,4-benzoxazine-2-carboxamide], the EC50 fell in the range of 50 to 250 nM. Then `O=C(NC12CC(n3cc(-c4ccc(OC(F)(F)F)cn4)cn3)(C1)C2)[C@H]1C[C@@H](O)c2ccccc2O1` [Compound 367, (2R,4R)-4-hydroxy-N-(3-{4-[5-(trifluoromethoxy)pyridin-2-yl]-1H-pyrazol-1-yl}bicyclo[1.1.1]pentan-1-yl)-3,4-dihydro-2H-1-benzopyran-2-carboxamide], with under 10 nM; and `O=C(NC12CC(n3cc4cc(COCC(F)(F)F)ccc4n3)(C1)C2)[C@H]1C[C@@H](O)c2cc(Cl)ccc2O1` [Compound 650, (2R,4R)-6-chloro-4-hydroxy-N-(3-{5-[(2,2,2-trifluoroethoxy)methyl]-2H-indazol-2-yl}bicyclo[1.1.1]pentan-1-yl)-3,4-dihydro-2H-1-benzopyran-2-carboxamide], with under 10 nM; and `O=C(NC12CC(c3ccnc(-n4cc(C(F)(F)F)cn4)c3)(C1)C2)[C@H]1C[C@@H](O)c2cc(C(F)(F)F)ccc2O1` [Compound 558, (2R,4R)-4-hydroxy-6-(rifluoromethyl)-N-(3-{2-[4-(trifluoromethyl)-1H-pyrazol-1-yl]pyridin-4-yl}bicyclo[1.1.1]pentan-1-yl)-3,4-dihydro-2H-1-benzopyran-2-carboxamide], with 10 to 50 nM. `O=C(NC12CC(n3cc(-c4ccc(C(F)(F)F)cn4)cn3)(C1)C2)C1CNc2cc(Cl)c(F)cc2O1` (centres unmarked) [Compound 574, 6-chloro-7-fluoro-N-(3-{4-[5-(trifluoromethyl)pyridin-2-yl]-1H-pyrazol-1-yl}bicyclo[1.1.1]pentan-1-yl)-3,4-dihydro-2H-1,4-benzoxazine-2-carboxamide]: the EC50 was under 10 nM. Turning to `O=C(NC12CC(c3ccc(-n4cnc(C(F)(F)F)c4)nc3)(C1)C2)[C@H]1C[C@@H](O)c2cc(Cl)c(F)cc2O1` [Compound 480, (2R,4R)-6-chloro-7-fluoro-4-hydroxy-N-(3-{6-[4-(trifluoromethyl)-1H-imidazol-1-yl]pyridin-3-yl}bicyclo[1.1.1]pentan-1-yl)-3,4-dihydro-2H-1-benzopyran-2-carboxamide], the concentration for a half-maximal effect (EC50) was under 10 nM.

With `O=C(NC12CC(c3cnn([C@H]4C[C@@H](OC(F)(F)F)C4)c3)(C1)C2)[C@H]1C[C@@H](O)c2cc(Cl)ccc2O1` [Compound 316, (2R,4R)-6-chloro-4-hydroxy-N-(3-{1-[cis-3-(trifluoromethoxy)cyclobutyl]-1H-pyrazol-4-yl}bicyclo[1.1.1]pentan-1-yl)-3,4-dihydro-2H-1-benzopyran-2-carboxamide], the EC50 was under 10 nM. `O=C(CO[C@H]1C[C@@H](OC(F)(F)F)C1)NC12CC(NC(=O)[C@@H]3C[C@@H](O)c4cc(Cl)c(F)cc4O3)(C1)C2` [Compound 491, (2S,4R)-6-chloro-7-fluoro-4-hydroxy-N-[3-(2-{[(1s,3R)-3-(trifluoromethoxy)cyclobutyl]oxy}acetamido)bicyclo[1.1.1]pentan-1-yl]-3,4-dihydro-2H-1-benzopyran-2-carboxamide]: the EC50 was under 10 nM.

As for `O=C(NC12CC(n3cc4cc(OC(F)(F)F)ccc4n3)(C1)C2)[C@H]1C[C@@H](O)c2cc(Cl)ccc2O1` [Compound 509, (2R,4R)-6-chloro-4-hydroxy-N-{3-[5-(trifluoromethoxy)-2H-indazol-2-yl]bicyclo[1.1.1]pentan-1-yl}-3,4-dihydro-2H-1-benzopyran-2-carboxamide], the EC50 lay in the range of 10 to 50 nM. As to `O=C(NC12CC(n3cc(OCCOC(F)(F)F)cn3)(C1)C2)[C@H]1C[C@@H](O)c2cc(C(F)(F)F)ccc2O1` [Compound 424, (2R,4R)-4-hydroxy-N-(3-{4-[2-(trifluoromethoxy)ethoxy]-1H-pyrazol-1-yl}bicyclo[1.1.1]pentan-1-yl)-6-(trifluoromethyl)-3,4-dihydro-2H-1-benzopyran-2-carboxamide], the EC50 was under 10 nM. Consider `O=C(CO[C@H]1C[C@@H](OC(F)(F)F)C1)NC12CC(NC(=O)[C@H]3C[C@H](O)c4cc(C(F)(F)F)c(F)cc4O3)(C1)C2` [Compound 643, (2R,4S)-7-fluoro-4-hydroxy-N-[3-(2-{[(1s,3S)-3-(trifluoromethoxy)cyclobutyl]oxy}acetamido)bicyclo[1.1.1]pentan-1-yl]-6-(trifluoromethyl)-3,4-dihydro-2H-1-benzopyran-2-carboxamide], for which the half-maximal effective concentration (EC50) was under 10 nM.

In the case of `O=C(NC12CC(n3cnc(-c4ccc(Cl)cc4F)c3)(C1)C2)[C@H]1C[C@@H](O)c2cc(Cl)ccc2O1` [Compound 343, (2R,4R)-6-chloro-N-{3-[4-(4-chloro-2-fluorophenyl)-1H-imidazol-1-yl]bicyclo[1.1.1]pentan-1-yl}-4-hydroxy-3,4-dihydro-2H-1-benzopyran-2-carboxamide], the EC50 is under 10 nM. In the case of `O=C(NC12CC(n3cc(C(=O)N4CC(COC(F)(F)F)C4)cn3)(C1)C2)[C@H]1C[C@@H](O)c2cc(Cl)c(F)cc2O1` [Compound 363, (2R,4R)-6-chloro-7-fluoro-4-hydroxy-N-[3-(4-{3-[(trifluoromethoxy)methyl]azetidine-1-carbonyl}-1H-pyrazol-1-yl)bicyclo[1.1.1]pentan-1-yl]-3,4-dihydro-2H-1-benzopyran-2-carboxamide], the EC50 was under 10 nM. Regarding `O=C(CO[C@H]1C[C@@H](OC(F)(F)F)C1)N[C@@H]1C[C@@H]2C[C@H]1C[C@H]2NC(=O)[C@H]1C[C@@H](O)c2cc(C(F)(F)F)c(F)cc2O1` [Compound 645, (2R,4R)-7-fluoro-4-hydroxy-N-[(1S,2R,4S,5R)-5-(2-{[(1s,3S)-3-(trifluoromethoxy)cyclobutyl]oxy}acetamido)bicyclo[2.2.1]heptan-2-yl]-6-(trifluoromethyl)-3,4-dihydro-2H-1-benzopyran-2-carboxamide], the EC50 is under 10 nM. `C[C@@H](COC(F)(F)F)Oc1cnn(C23CC(NC(=O)[C@H]4C[C@@H](O)c5cc(C(F)(F)F)ccc5O4)(C2)C3)c1` [Compound 441, (2R,4R)-4-hydroxy-N-[3-(4-{[(2S)-1-(trifluoromethoxy)propan-2-yl]oxy}-1H-pyrazol-1-yl)bicyclo[1.1.1]pentan-1-yl]-6-(trifluoromethyl)-3,4-dihydro-2H-1-benzopyran-2-carboxamide]: the EC50 was 10 to 50 nM.

For the compound `O=C(NC12CC(n3cc(CCCOC(F)(F)F)cn3)(C1)C2)[C@H]1C[C@@H](O)c2cc(Cl)c(F)cc2O1` [Compound 514, (2R,4R)-6-chloro-7-fluoro-4-hydroxy-N-(3-{4-[3-(trifluoromethoxy)propyl]-1H-pyrazol-1-yl}bicyclo[1.1.1]pentan-1-yl)-3,4-dihydro-2H-1-benzopyran-2-carboxamide], the EC50 is under 10 nM. For `O=C(NC12CC(n3cc(N4CCN(CC(F)(F)F)CC4=O)cn3)(C1)C2)[C@H]1C[C@@H](O)c2cc(Cl)ccc2O1` [Compound 383, (2R,4R)-6-chloro-4-hydroxy-N-(3-{4-[2-oxo-4-(2,2,2-trifluoroethyl)piperazin-1-yl]-1H-pyrazol-1-yl}bicyclo[1.1.1]pentan-1-yl)-3,4-dihydro-2H-1-benzopyran-2-carboxamide], the EC50 is under 10 nM. As to `O=C(N[C@H]1CC[C@H](n2cc(OCCOC(F)(F)F)cn2)CC1)[C@H]1C[C@H](O)c2cc(Cl)ccc2O1` [Compound 447, (2R,4S)-6-chloro-4-hydroxy-N-[(1r,4R)-4-{4-[2-(trifluoromethoxy)ethoxy]-1H-pyrazol-1-yl}cyclohexyl]-3,4-dihydro-2H-1-benzopyran-2-carboxamide], the EC50 lay within 50 to 250 nM.

As for `O=C(NC12CC(n3cc(C(=O)N4CC(COC(F)(F)F)C4)cn3)(C1)C2)[C@H]1C[C@@H](O)c2ccccc2O1` [Compound 375, (2R,4R)-4-hydroxy-N-[3-(4-{3-[(trifluoromethoxy)methyl]azetidine-1-carbonyl}-1H-pyrazol-1-yl)bicyclo[1.1.1]pentan-1-yl]-3,4-dihydro-2H-1-benzopyran-2-carboxamide], the EC50 lay within 250 to 500 nM. On to `O=C(NC12CCC(n3cc(C(=O)N4CC[C@H](OC(F)(F)F)C4)cn3)(CC1)CC2)[C@H]1C[C@@H](O)c2cc(Cl)ccc2O1` [Compound 331, (2R,4R)-6-chloro-4-hydroxy-N-(4-{4-[(3S)-3-(trifluoromethoxy)pyrrolidine-1-carbonyl]-1H-pyrazol-1-yl}bicyclo[2.2.2]octan-1-yl)-3,4-dihydro-2H-1-benzopyran-2-carboxamide], for which the EC50 was under 10 nM.
